# In patent US7989495B2, “Compositions and methods for inhibiting NF-κB mediated tumorigenicity and adhesion dependent survival of cancer cells” (University of Utah Research Foundation, priority 2002, dated 2011):
# Values joined by “and” are separate entries in the source; they are usually repeats but may differ in a detail not shown here. Equal entries are not always repeated.
# What was measured:
# 293-COX-2 cells = experiment: Apoptosis of 293 cells with ponasterone-inducible COX-2; assay type: cell-based; conditions: 8 hours
# Method: The transiently suspended cells were lysed and allowed to bind to DNA oligonucleotides, containing the NF-κB consensus binding site, that were immobilized to 96-well plates. NF-κB protein bound to the oligonucleotides was detected by an antibody to the p65 subunit that only recognized p65 that is bound to DNA. The positive control was HeLa cells that were stimulated with TNFα A control was performed using excess free NF-κB oligonucleotides (Competitor). […] NF-κB binding activity was determined by the TransAM assay as in FIG. 5A. […] The data shown represent typical results of three separate experiments. […] An immunoblot for COX-2 was performed.
# DLD-1, HCT-116, and HT-29 colon cancer cell lines were obtained from the ATCC collection and were cultured in Dulbecco's Modification of Eagle's Medium supplemented with 10% fetal bovine serum, glutamine, penicillin, and streptomycin. […]
# Single cell suspensions were plated at 100,000 cells per well in 24-well plates in media containing DMSO, BAY 11-7082, BAY 11-7085, or MG-132 for 8-24 hours in an incubator. […] 400 μl of binding buffer was added to each tube and the cells were analyzed by flow cytometry immediately. The percent of apoptosis was determined as the percent of annexin V-positive, propidium iodide-negative cells of the total cells counted. […]
# [1] = system: HCT-116 cells injected intraperitoneally; experiment: Intraabdominal seeding (metastasis) model in athymic mice; assay type: in vivo; conditions: HCT-116 intraperitoneal; pretreated, then twice weekly; after 21 days
# From the text: (§1) FIGS. 6A, B, C show tumor implants of the liver of three athymic mice 21 days after receiving intraperitoneal injections of HT-29 cells. The mice were pretreated and treated for a total of 21 days with DMSO twice weekly. […] The mouse was pretreated and treated for a total of 21 days with DMSO twice weekly. […] This section was obtained from the tumor implant from the mouse in FIG. 6A. […] FIG. 6G, (liver), FIG. 6H, (abdominal wall), and FIG. 6I, (intestinal) show tumor implants in three athymic mice 21 days after receiving intraabdominal injections of HCT-116 cells. All of the mice were treated with 5 mg/kg of BAY 11-7085 twice weekly.
# (§2) HT-29 and HCT-116 cells were harvested in 0.25% trypsin-PBS-EDTA, washed once in media and PBS, and resuspended in PBS at 1 million cells per 200 μL. One million cells were injected either subcutaneously in the backs or intraperitoneally in 5 week old female nu/nu athymic mice (Charles River Labs). For the mice with subcutaneous tumors, the tumors were allowed to establish themselves for 10 days after which they were randomized to BAY 11-7085 or DMSO. For the mice with intraperitoneal tumors, the mice received DMSO or BAY 11-7085 (5 mg/kg) 24 hours before the cancer cells were injected intrapentoneally. All mice received BAY 11-7085 (5 mg/kg) or an equal volume of DMSO (˜200 μL) twice weekly for 21-32 days. Subcutaneous tumor sizes were determined by measuring the length and width with calipers. These studies were approved by the U. of Utah Institutional Review Board and Institutional Animal Care and Use Committee and performed in the Animal Resource Center. Mice were euthanized when they experienced a greater than 10% loss in body weight or if they appeared ill. […]
# (§3) Since BAY 11-7085 induced apoptosis of readherent HT-29 cells, an in vivo model was used to test the ability of the drug to prevent metastasis by seeding of intraabdominal tissue with colon cancer cells. […] Seeding results from the transient suspension of cancer cells, through a loss of adhesion either naturally ro because of surgical displacement, followed by readhesion to other tissues. […]
# [2] = system: HT-29 cells injected intraperitoneally; experiment: as above; assay type: in vivo; conditions: HT-29 intraperitoneal; pretreated 24 hours earlier, then twice weekly, 21 days; n = 6
# From the text: as §1, §2, §3
smiles,measurement,setting,value
"CC(C)(C)c1ccc(S(=O)(=O)/C=C/C#N)cc1 [BAY 11-7085, (2E)-3-[4-(tertiarybutylphenyl)sulfonyl]-2-propenenitrile]",apoptosis following treatment,"293-COX-2 cells; ponasterone-induced (1 μg/ml, 48 hours) 293-COX-2 cells",marked increase in BAY 11-7085-induced apoptosis
same,apoptosis following treatment,293-COX-2 cells; uninduced 293-COX-2 cells,no increase in apoptosis
same,metastases of parietal and visceral peritoneum,[1],clear evidence of metastases
same,Liver Metastases (mice with metastases / mice),[2],none of the 6 and 0/6
same,Peritoneal Metastases (mice with metastases / mice),[2],2 of 6 and 2/6
